# Measured values as given in patent publication US7211572B2 (Japan Tobacco Inc., priority 2003, dated 2007).
# Molecular target: T1, HIV integrase (Human immunodeficiency virus type 1 group M subtype B, UniProt P12497, F1332H)
# T1 construct: HIV integrase full length gene; made in house; host or cells: Escherichia coli BL21(DE3), plasmid pET21a-INH
# Experiment: Determination of enzyme (HIV integrase) inhibitory activity
# Assay type: biochemical
# Settings: recombinant HIV integrase (F185H), strand transfer ELISA, absorbance at 450 nm
# Description: The following explains evaluation methods of the HIV integrase inhibitory activity of the compound of the present invention.
# (i) Construction of Recombinant Integrase Gene Expression System
# The 185th phenylalanine of HIV integrase full length gene (J. Virol., 67, 425–437 (1993)) was substituted by histidine and inserted into the restriction enzyme NdeI and XhoI sites of plasmid pET21a(+) (Novagen), whereby an integrase expression vector pET21a-INH was constructed.
# (ii) Production and Purification of Integrase Protein
# Escherichia coli recombinant BL21(DE3) transformed with plasmid pET21a-INH obtained in (i) was shake cultured at 37° C. in a liquid medium containing ampicillin. When the culture reached the logarithmic growth phase, isopropyl-β-D-thiogalactopyranoside was added to promote expression of integrase gene. The culture was continued for 3 hr to promote accumulation of the integrase protein. The recombinant E. coli was collected in pellets by centrifugal separation and preserved at −80° C.
# The E. coli was suspended in Lysis buffer (20 mM HEPES (pH 7.5), 5 mM DTT, 10 mM CHAPS, 10% glycerol) containing 1M sodium chloride and subjected to repeat pressurization and depressurization for rupture, and centrifugal separation at 4° C., 40,000×g, 60 min to recover a water-soluble fraction (supernatant). This was diluted 10-fold with Lysis buffer free of sodium chloride, mixed with SP-Sepharose (Pharmacia Corporation) and stirred at 4° C. for 30 min to allow adsorption of integrase protein to the resin. The resin was washed with Lysis buffer containing 100 mM sodium chloride and the integrase protein was eluted with Lysis buffer containing 1M sodium chloride.
# The eluted integrase protein solution was applied to a Superdex 75 (Pharmacia Corporation) column for gel filtration. The protein was eluted with Lysis buffer containing 1M sodium chloride.
# The obtained fractions of the integrase protein were collected and preserved at −80° C.
# (iii) Preparation of DNA Solution
# The following DNA synthesized by Greiner was dissolved in TE buffer (10 mM Tris-hydrochloric acid (pH 8.0), 1 mM EDTA) and mixed with donor DNA, target DNA, and each complementary strand (+ and − strands) to 1 μM. The mixture was heated at 95° C. for 5 min, 80° C. for 10 min, 70° C. for 10 min, 60° C. for 10 min, 50° C. for 10 min and 40° C. for 10 min and preserved at 25° C. to give a double stranded DNA, which was used for the test.
# Donor DNA (− strand having biotin attached to the 5′ terminal)
# (iv) Determination of Enzyme (HIV Integrase) Inhibitory Activity
# The donor DNA was diluted with TE buffer to 10 nM, of which 50 μl was added to each well of streptavidin-coated microtiter plate (Roche) and allowed to adsorb at 37° C. for 60 min. The DNA was washed with phosphate buffer (Dulbecco PBS, Sanko Junyaku Co., Ltd.) containing 0.1% Tween 20 and phosphate buffer. Then, a reaction mixture (70 μl) having the following composition, a test substance (10 μl) diluted with the reaction mixture and 100 μg/ml integrase protein (10 μl) were added to each well and reacted at 37° C. for 60 min.
# Composition of the reaction mixture: 30 mM MOPS (3-morpholinopropanesulfonic acid), 5 mM magnesium chloride, 3 mM DTT (dithiothreitol), 0.1 mg/ml BSA (bovine serum albumin), 5% glycerol, 10% DMSO (dimethyl sulfoxide), 0.01% Tween 20.
# Then, 50 nM target DNA (10 μl) was added, reacted at 37° C. for 10 min and washed with phosphate buffer containing 0.1% Tween 20 to stop the reaction.
# Then, 100 mU/ml peroxidase labeled anti-digoxigenin antibody solution (Roche, 100 μl) was added, and the mixture was reacted at 30° C. for 60 min, followed by washing with phosphate buffer containing 0.1% Tween 20.
# A peroxidase color solution (Bio Rad, 100 μl) was added and allowed to react at room temperature for 4 min. The color reaction was stopped by adding 1N sulfuric acid (100 μl). The absorbance at 450 nm was measured. […]
row,SMILES,IC50 [nM]
1,"CS(=O)(=O)Cc1cc(=O)c(O)c2n1CCN(Cc1ccc(Cl)c(Cl)c1)C2=O [Example 31, 2-(3,4-dichlorobenzyl)-9-hydroxy-6-methanesulfonylmethyl-3,4-dihydro-2H-pyrido[1,2-a]pyrazine-1,8-dione]",10 to 100
2,"CS(=O)(=O)CCC1CN(Cc2ccc(Cl)c(Cl)c2)C(=O)c2c(O)c(=O)ccn21 (centres unmarked) [Example 32, 2-(3,4-dichlorobenzyl)-9-hydroxy-4-(2-methanesulfonylethyl)-3,4-dihydro-2H-pyrido[1,2-a]pyrazine-1,8-dione]",10 to 100
3,"CSCCC1CN(Cc2ccc(Cl)c(Cl)c2)C(=O)c2c(O)c(=O)ccn21 (centres unmarked) [Example 33, 2-(3,4-dichlorobenzyl)-9-hydroxy-4-(2-methylsulfanylethyl)-3,4-dihydro-2H-pyrido[1,2-a]pyrazine-1,8-dione]",10 to 100
4,"COC(=O)c1cc(=O)c(O)c2n1CCN(Cc1ccc(Cl)c(Cl)c1)C2=O [Example 34, methyl 2-(3,4-dichlorobenzyl)-9-hydroxy-1,8-dioxo-1,3,4,8-tetrahydro-2H-pyrido[1,2-a]pyrazine-6-carboxylate]",10 to 100
5,"CC(=O)c1cc(=O)c(O)c2n1CCN(Cc1ccc(Cl)c(Cl)c1)C2=O [Example 35, 6-acetyl-2-(3,4-dichlorobenzyl)-9-hydroxy-3,4-dihydro-2H-pyrido[1,2-a]pyrazine-1,8-dione]",10 to 100
6,"CC(C)SCc1cc(=O)c(O)c2n1CCN(Cc1ccc(Cl)c(Cl)c1)C2=O [Example 36, 2-(3,4-dichlorobenzyl)-9-hydroxy-6-isopropylsulfanylmethyl-3,4-dihydro-2H-pyrido[1,2-a]pyrazine-1,8-dione]",10 to 100
7,"CC(C)S(=O)(=O)Cc1cc(=O)c(O)c2n1CCN(Cc1ccc(Cl)c(Cl)c1)C2=O [Example 37, 2-(3,4-dichlorobenzyl)-9-hydroxy-6-isopropylsulfonylmethyl-3,4-dihydro-2H-pyrido[1,2-a]pyrazine-1,8-dione]",10 to 100
8,"CC(C)OCc1cc(=O)c(O)c2n1CCN(Cc1ccc(Cl)c(Cl)c1)C2=O [Example 38, 2-(3,4-dichlorobenzyl)-9-hydroxy-6-isopropoxymethyl-3,4-dihydro-2H-pyrido[1,2-a]pyrazine-1,8-dione]",10 to 100
9,"CC(C)COCc1cc(=O)c(O)c2n1CCN(Cc1ccc(Cl)c(Cl)c1)C2=O [Example 39, 2-(3,4-dichlorobenzyl)-9-hydroxy-6-isobutoxymethyl-3,4-dihydro-2H-pyrido[1,2-a]pyrazine-1,8-dione]",10 to 100
10,"CC(O)c1cc(=O)c(O)c2n1CCN(Cc1ccc(Cl)c(Cl)c1)C2=O (centres unmarked) [Example 40, 2-(3,4-dichlorobenzyl)-9-hydroxy-6-(1-hydroxyethyl)-3,4-dihydro-2H-pyrido[1,2-a]pyrazine-1,8-dione]",10 to 100
11,"O=C1c2c(O)c(=O)cc(COc3ccccc3)n2CCN1Cc1ccc(Cl)c(Cl)c1 [Example 41, 2-(3,4-dichlorobenzyl)-9-hydroxy-6-phenoxymethyl-3,4-dihydro-2H-pyrido[1,2-a]pyrazine-1,8-dione]",10 to 100
12,"O=C1c2c(O)c(=O)ccn2CCN1Cc1ccc(F)cc1 [Example 42, 2-(4-fluorobenzyl)-9-hydroxy-3,4-dihydro-2H-pyrido[1,2-a]pyrazine-1,8-dione]",10 to 100
13,"O=C1c2c(O)c(=O)ccn2CCN1Cc1cccc(Cl)c1 [Example 43, 2-(3-chlorobenzyl)-9-hydroxy-3,4-dihydro-2H-pyrido[1,2-a]pyrazine-1,8-dione]",10 to 100
14,"O=C1c2c(O)c(=O)ccn2CCN1Cc1ccccc1 [Example 44, 2-benzyl-9-hydroxy-3,4-dihydro-2H-pyrido[1,2-a]pyrazine-1,8-dione]",100 to 1000
15,"O=C1c2c(O)c(=O)ccn2CCN1Cc1ccc(Cl)cc1 [Example 45, 2-(4-chlorobenzyl)-9-hydroxy-3,4-dihydro-2H-pyrido[1,2-a]pyrazine-1,8-dione]",10 to 100
16,"CC(C)c1cc(=O)c(O)c2n1CCN(Cc1ccc(Cl)c(Cl)c1)C2=O [Example 46, 2-(3,4-dichlorobenzyl)-9-hydroxy-6-isopropyl-3,4-dihydro-2H-pyrido[1,2-a]pyrazine-1,8-dione]",10 to 100
17,"CC(C)C(=O)c1cc(=O)c(O)c2n1CCN(Cc1ccc(Cl)c(Cl)c1)C2=O [Example 47, 2-(3,4-dichlorobenzyl)-9-hydroxy-6-isobutyryl-3,4-dihydro-2H-pyrido[1,2-a]pyrazine-1,8-dione]",< 10
18,"O=Cc1cc(=O)c(O)c2n1CCN(Cc1ccc(Cl)c(Cl)c1)C2=O [Example 48, 2-(3,4-dichlorobenzyl)-9-hydroxy-1,8-dioxo-1,3,4,8-tetrahydro-2H-pyrido[1,2-a]pyrazine-6-carbaldehyde]",10 to 100
19,"O=C1c2c(O)c(=O)cc(-c3ccccc3)n2CCN1Cc1ccc(Cl)c(Cl)c1 [Example 49, 2-(3,4-dichlorobenzyl)-9-hydroxy-6-phenyl-3,4-dihydro-2H-pyrido[1,2-a]pyrazine-1,8-dione]",10 to 100
20,"O=C1c2c(O)c(=O)ccn2CCN1CCCc1ccccc1 [Example 50, 9-hydroxy-2-(3-phenylpropyl)-3,4-dihydro-2H-pyrido[1,2-a]pyrazine-1,8-dione]",10 to 100
21,"O=C1c2c(O)c(=O)ccn2CCN1Cc1cccc(Cl)c1F [Example 51, 2-(3-chloro-2-fluorobenzyl)-9-hydroxy-3,4-dihydro-2H-pyrido[1,2-a]pyrazine-1,8-dione]",10 to 100
22,"CC(C)C(O)c1cc(=O)c(O)c2n1CCN(Cc1ccc(Cl)c(Cl)c1)C2=O (centres unmarked) [Example 53, 2-(3,4-dichlorobenzyl)-9-hydroxy-6-(1-hydroxy-2-methylpropyl)-3,4-dihydro-2H-pyrido[1,2-a]pyrazine-1,8-dione]",10 to 100
23,"CC(C)Cc1cc(=O)c(O)c2n1CCN(Cc1ccc(Cl)c(Cl)c1)C2=O [Example 54, 2-(3,4-dichlorobenzyl)-9-hydroxy-6-isobutyl-3,4-dihydro-2H-pyrido[1,2-a]pyrazine-1,8-dione]",10 to 100
24,"NC(=O)c1cc(=O)c(O)c2n1CCN(Cc1ccc(Cl)c(Cl)c1)C2=O [Example 55, 2-(3,4-dichlorobenzyl)-9-hydroxy-1,8-dioxo-1,3,4,8-tetrahydro-2H-pyrido[1,2-a]pyrazine-6-carboxamide]",10 to 100
25,"CNC(=O)c1cc(=O)c(O)c2n1CCN(Cc1ccc(Cl)c(Cl)c1)C2=O [Example 56, N-methyl-2-(3,4-dichlorobenzyl)-9-hydroxy-1,8-dioxo-1,3,4,8-tetrahydro-2H-pyrido[1,2-a]pyrazine-6-carboxamide]",10 to 100
26,"O=C1c2c(O)c(=O)ccn2CCN1Cc1ccc(Cl)c(F)c1 [Example 57, 2-(4-chloro-3-fluorobenzyl)-9-hydroxy-3,4-dihydro-2H-pyrido[1,2-a]pyrazine-1,8-dione]",10 to 100
27,"O=C(c1ccccc1)c1cc(=O)c(O)c2n1CCN(Cc1ccc(Cl)c(Cl)c1)C2=O [Example 58, 6-benzoyl-2-(3,4-dichlorobenzyl)-9-hydroxy-3,4-dihydro-2H-pyrido[1,2-a]pyrazine-1,8-dione]",< 10
28,"CCC(=O)c1cc(=O)c(O)c2n1CCN(Cc1ccc(Cl)c(Cl)c1)C2=O [Example 59, 2-(3,4-dichlorobenzyl)-9-hydroxy-6-propionyl-3,4-dihydro-2H-pyrido[1,2-a]pyrazine-1,8-dione]",< 10
29,"Cc1cc(=O)c(O)c2n1CCN(Cc1ccc(Cl)c(Cl)c1)C2=O [Example 60, 2-(3,4-dichlorobenzyl)-9-hydroxy-6-methyl-3,4-dihydro-2H-pyrido[1,2-a]pyrazine-1,8-dione]",10 to 100
